Laboratory results: the supplement of paper PMC11208160

Assay: recombinant barcode read abundance after kanamycin selection (control-corrected) (log10(CPM+1)); higher = more efficient recombination; sequences stand for … in AGTGCAGAGAAAATCGGCCAGTTTTCTCTGCCTGCAGTCCGCATGCCGT…AGATTTATGCAGCGGACTGCCTTTCTCCCAAAGTGATAAACCGGACAGTATCATGGACCGGTTTTCCCGGTAATCCGTATTTGCAAGGTTGGTTTCACT; site = the 11-nt target
Summary of the method: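 In E. coli, a pooled library matched targets to IS621 bridge RNA target-binding loops and was introduced alongside a donor plasmid. Cells went onto chloramphenicol/ampicillin/kanamycin with 0.1 mM IPTG or onto chloramphenicol/ampicillin LB agar as control, in duplicate. Recombination efficiency, from recombinant-junction barcodes as counts per million, is averaged and control-corrected. It is reported as log10(CPM+1).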
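Also: IS621 recombinase and bridge RNA in Escherichia coli cells.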

Sequence | recombinant barcode read abundance (log10)
CGGAACTCTTGGGTTCTAACCTGTTGCCT (site AGGAACTCTAG) | 0.274
CGGAACTCTTGGGTTCTAACCTGTTGCCT (site CGGAACTCTAG) | 1.85
CGGAATCCTTGGGTTCTAACCTGTTGCCT (site CGGAATCCTAA) | 0.198
CGGAATCCTTGGGTTCTAACCTGTTGCCT (site CGGAATCCTAC) | 0.00785
CGGAATCCTTGGGTTCTAACCTGTTGCCT (site CGGAATCCTAG) | 0.864
CGGAATCCTTGGGTTCTAACCTGTTGCCT (site CGGAATCCTAT) | 0.0895
CGGAATTCTTGGGTTCTAACCTGTTGCCT (site CGGAATTCTAG) | 1.17
CGGAATTCTTGGGTTCTAACCTGTTGCCT (site CGTTATTCTAG) | 0.743
CGGACGGCTTGGGTTCTAACCTGTTGCCT (site CGGACGACTAG) | 0.376
CGGACGGCTTGGGTTCTAACCTGTTGCCT (site CGGACGCCTAG) | 0.285
CGGACGGCTTGGGTTCTAACCTGTTGCCT (site CGGACGGCTAG) | 0.215
CGGACGGCTTGGGTTCTAACCTGTTGCCT (site CGGACGTCTAG) | 0.271
CGGACGTCTTGGGTTCTAACCTGTTGCCT (site CGGACGACTAG) | 0.12
CGGACGTCTTGGGTTCTAACCTGTTGCCT (site CGGACGCCTAG) | 0.0491
CGGACGTCTTGGGTTCTAACCTGTTGCCT (site CGGACGGCTAG) | 0.101
CGGACGTCTTGGGTTCTAACCTGTTGCCT (site CGGACGTCTAG) | 1.45
CGGAGCCCTTGGGTTCTAACCTGTTGCAG (site CGGAGCCCTCT) | 2.06
CGGAGCCCTTGGGTTCTAACCTGTTGCAG (site CTGAGCCCTAT) | 0.143
CGGCACACTTGGGTTCTAACCTGTTGCCT (site CGACACACTAG) | 0.239
CGGCACACTTGGGTTCTAACCTGTTGCCT (site CGCCACACTAG) | 0.0516
CGGCACACTTGGGTTCTAACCTGTTGCCT (site CGGCACACTAG) | 0.761
CGGCACACTTGGGTTCTAACCTGTTGCCT (site CGTCACACTAG) | 0.00935

Sequence | recombinant barcode read abundance (log10)
CGGCACACTTGGGTTCTAACCTGTTGCTT (site CGGCACACTAA) | 0.778
CGGCACACTTGGGTTCTAACCTGTTGCTT (site CGGCTCACTTA) | 0.129
CGGCGTGCTTGGGTTCTAACCTGTTGCCT (site CAGCGTGCTAG) | 0.555
CGGCGTGCTTGGGTTCTAACCTGTTGCCT (site CCGCGTGCTAG) | 0.34
CGGCGTGCTTGGGTTCTAACCTGTTGCCT (site CGGCGTGCTAG) | 1.99
CGGCGTGCTTGGGTTCTAACCTGTTGCCT (site CTGCGTGCTAG) | 0.161
CGGCTACCTTGGGTTCTAACCTGTTGCGG (site CGGCTACCTCC) | 1.29
CGGCTACCTTGGGTTCTAACCTGTTGCGG (site GACGGCACTAG) | 0.0111
CGGCTGCCTTGGGTTCTAACCTGTTGCGG (site CGGCTGCCTCC) | 2.57
CGGCTGCCTTGGGTTCTAACCTGTTGCGG (site GTATCCGCTTG) | 0.446
CGGCTTCCTTGGGTTCTAACCTGTTGCGT (site CAACTTCCTAC) | 0.117
CGGCTTCCTTGGGTTCTAACCTGTTGCGT (site CGGCTTCCTAC) | 1.24
CGGGACACTTGGGTTCTAACCTGTTGCGG (site CGGAACACTCC) | 2.07
CGGGACACTTGGGTTCTAACCTGTTGCGG (site CGGCACACTCC) | 0.143
CGGGACACTTGGGTTCTAACCTGTTGCGG (site CGGGACACTCC) | 2.82
CGGGACACTTGGGTTCTAACCTGTTGCGG (site CGGTACACTCC) | 0.867
CGGGCTACTTGGGTTCTAACCTGTTGCCA (site CGGGCTACTTG) | 0.334
CGGGCTACTTGGGTTCTAACCTGTTGCCA (site TCCTAATCTAA) | 0.00664
CGGGGAGCTTGGGTTCTAACCTGTTGCCG (site CGGGAAGCTAG) | 0.427
CGGGGAGCTTGGGTTCTAACCTGTTGCCG (site CGGGGAGCTCG) | 0.761
CGGGGCACTTGGGTTCTAACCTGTTGCCT (site CGGGGCACTAG) | 0.606
CGGGGCACTTGGGTTCTAACCTGTTGCCT (site CTGGGCACTAG) | 0.18

Sequence | recombinant barcode read abundance (log10)
CGGGGTTCTTGGGTTCTAACCTGTTGCCT (site CAGGGTTCTAG) | 0.321
CGGGGTTCTTGGGTTCTAACCTGTTGCCT (site CCGGGTTCTAG) | 0.167
CGGGGTTCTTGGGTTCTAACCTGTTGCCT (site CGGGGTTCTAG) | 2.43
CGGGGTTCTTGGGTTCTAACCTGTTGCCT (site CTGGGTTCTAG) | 0.0823
CGGGTAACTTGGGTTCTAACCTGTTGCCT (site CGGGTAACTAG) | 0.0693
CGGGTAACTTGGGTTCTAACCTGTTGCCT (site CTGGAAACTAG) | 0.0897
CGGTAATCTTGGGTTCTAACCTGTTGCTT (site ACGTAATCTAA) | 0.0734
CGGTAATCTTGGGTTCTAACCTGTTGCTT (site CGGTAATCTAA) | 0.161
CGGTACACTTGGGTTCTAACCTGTTGCGG (site CGGAACACTCC) | 0.862
CGGTACACTTGGGTTCTAACCTGTTGCGG (site CGGCACACTCC) | 2.48
CGGTACACTTGGGTTCTAACCTGTTGCGG (site CGGGACACTCC) | 0.78
CGGTACACTTGGGTTCTAACCTGTTGCGG (site CGGTACACTCC) | 3.14
CGGTAGTCTTGGGTTCTAACCTGTTGCTG (site CGGTAGTCTAA) | 0.0345
CGGTAGTCTTGGGTTCTAACCTGTTGCTG (site CGGTAGTCTCA) | 1.08
CGGTGAACTTGGGTTCTAACCTGTTGCCT (site CAGTGAACTAG) | 0.109
CGGTGAACTTGGGTTCTAACCTGTTGCCT (site CCGTGAACTAG) | 0.148
CGGTGAACTTGGGTTCTAACCTGTTGCCT (site CGGTGAACTAG) | 1.16
CGGTGAACTTGGGTTCTAACCTGTTGCCT (site CTGTGAACTAG) | 0.146
CGTAAGCCTTGGGTTCTAACCTGTTGCAT (site CGCAAGCCTAT) | 0.265
CGTAAGCCTTGGGTTCTAACCTGTTGCAT (site CGTAAGCCTAT) | 0.57
CGTAGAGCTTGGGTTCTAACCTGTTGCCT (site AGTAGAACTAG) | 0.0247
CGTAGAGCTTGGGTTCTAACCTGTTGCCT (site CGTAGAGCTAG) | 0.349

Sequence | recombinant barcode read abundance (log10)
CGTAGCTCTTGGGTTCTAACCTGTTGCCT (site CGAAGCTCTAG) | 0.133
CGTAGCTCTTGGGTTCTAACCTGTTGCCT (site CGCAGCTCTAG) | 0.128
CGTAGCTCTTGGGTTCTAACCTGTTGCCT (site CGGAGCTCTAG) | 0.134
CGTAGCTCTTGGGTTCTAACCTGTTGCCT (site CGTAGCTCTAG) | 0.516
CGTATCACTTGGGTTCTAACCTGTTGCCT (site CCGATCACTAG) | 0.0447
CGTATCACTTGGGTTCTAACCTGTTGCCT (site CGTATCACTAG) | 0.0527
CGTATGGCTTGGGTTCTAACCTGTTGCCT (site CGTATGGCTAG) | 0.349
CGTATGGCTTGGGTTCTAACCTGTTGCCT (site CGTGGGGCTAG) | 0.279
CGTCACCCTTGGGTTCTAACCTGTTGCCT (site CGTCAACCTAG) | 0.0616
CGTCACCCTTGGGTTCTAACCTGTTGCCT (site CGTCACCCTAG) | 0.173
CGTCACCCTTGGGTTCTAACCTGTTGCCT (site CGTCAGCCTAG) | 0.12
CGTCACCCTTGGGTTCTAACCTGTTGCCT (site CGTCATCCTAG) | 0.126
CGTCAGACTTGGGTTCTAACCTGTTGCCT (site CGTAAGACTAG) | 0
CGTCAGACTTGGGTTCTAACCTGTTGCCT (site CGTCAGACTAG) | 0.109
CGTCAGACTTGGGTTCTAACCTGTTGCCT (site CGTGAGACTAG) | 0.212
CGTCAGACTTGGGTTCTAACCTGTTGCCT (site CGTTAGACTAG) | 0
CGTCTACCTTGGGTTCTAACCTGTTGCTT (site AGTCTACCTAA) | 0.297
CGTCTACCTTGGGTTCTAACCTGTTGCTT (site CGTCTACCTAA) | 0.242
CGTCTCCCTTGGGTTCTAACCTGTTGCTT (site CGTATCCCTCA) | 0.108
CGTCTCCCTTGGGTTCTAACCTGTTGCTT (site CGTCTCCCTAA) | 0.162
